Results published in patent publication US7144880B2, “Compositions relating to novel compounds and targets thereof” (Regents of the University of Michigan, priority 2003, dated 2006).

What was measured:
[1] = tested on: sub-mitochondrial particles; assay: Redox cycling, NADH and NAD(P)H oxidation assays with sub-mitochondrial particles; assay type: biochemical; details: SMPs
Protocol: By contrast, replacing the hydroxyl with chlorine or azide, or methylating the phenol effectively abolishes the cytotoxic activity of Bz-423. […] Such agents accept an electron from MRC enzymes and transfer it back to the chain at point of higher reducing potential. This type of ‘redox cycling’ consumes endogenous reducing equivalents (e.g., glutathione) along with […] nucleotides and results in cell death. To distinguish between these alternatives, it was determined whether Bz-423 redox cycles in the presence of sub-mitochondrial particles using standard NADH and NAD(P)H oxidation assays.

[2] = biological target: T1, human OSCP (Homo sapiens, UniProt P48047); assay: Quenching of intrinsic OSCP fluorescence on titration (binding isotherm); details: human OSCP overexpressed in E. coli, fluorescence quenching
T1 construct: made in house; host or cells: E. coli
Text: Oligomycin is a macrolide natural product that binds to the mitochondrial F1F0-ATPase, induces a state 3 to 4 transition, and as a result, generates ROS (e.g., O2^−). In preferred embodiments, the present invention binds the OSCP component of the mitochondrial F1F0-ATPase. In certain embodiments, screening assays of the present invention permit detection of binding partners of the OSCP. OSCP is an intrinsically fluorescent protein. In certain embodiments, titrating a solution of test compounds of the present invention into an E. Coli sample overexpressed with OSCP results in quenching of the intrinsic OSCP fluorescence. In other embodiments, fluorescent or radioactive test compounds can be used in direct binding assays. In other embodiments, competition binding experiments can be conducted. In this type of assay, test compounds are assessed for their ability to compete with Bz-423 for binding to the OSCP. In some embodiments, the compounds of the present invention cause a reduced increase in cellular ROS levels and reduced apoptosis in cells through regulation of the OSCP gene (e.g., altering expression of the OSCP gene). In further embodiments, the present invention functions by altering the molecular motions of the ATPase motor.
To determine if Bz-423 indeed binds to the OSCP and the affinity of the interaction, human OSCP was overexpressed in E. coli. […]

[3] = tested on: isolated rat liver mitochondria; assay: ROS production in isolated mitochondria (DCFH oxidation to DCF); assay type: biochemical
Protocol: Male Long Evans rats are starved overnight and sacrificed by decapitation. Liver samples are homogenized in ice cold buffer A (250 mM sucrose, 10 mM Tris, 0.1 mM EGTA, pH 7.4), and nuclei and cellular debris are pelleted (10 min, 830 g, 4° C.). Mitochondria are collected by centrifugation (10 min, 15,000 g, 4° C.), and the supernatant is collected as the S15 fraction. The mitochondrial pellet is washed three times with buffer B (250 mM sucrose, 10 mM Tris, pH 7.4), and re-suspended in buffer B at 20–30 mg/mL. Mitochondria are diluted (0.5 mg/mL) in buffer C (200 mM sucrose, 10 mM Tris, pH 7.4, 1 mM KH2PO4, 10 μM EGTA, 2.5 μM rotenone, 5 mM succinate) containing 2′,7′-dichlorodihydrofluorescin diacetate (DCFH-DA, 1 μM). For state 3 measurements, ADP (2 mM) is included in the buffer, and prior to the addition of Bz-423, mitochondria are allowed to charge for 2 min. To induce state 4, oligomycin (10 μM) is added to buffer C. […] To detect effects on O2^− and delta ψm, mitochondria are incubated for 15 min at 37° C. in buffer C with vehicle, Bz-423, or CCCP containing DHE (5 μM) or DIOC6(3) (20 nM), and aliquots are removed for analysis by fluorescence microscopy.
O2^− production by Bz-423 may result from binding to a protein within mitochondria or a target in another compartment that signals mitochondria to generate ROS. To distinguish between these alternatives, isolated rat liver mitochondria were assayed for ROS production by monitoring the oxidation of 2′,7′-dichlorodihydrofluorescin diacetate to of 2′,7′-dichlorofluorescin in the presence and absence of Bz-423. In this assay, the rate of DCF production increased after a lag period during which endogenous reducing equivalents were consumed and the acetate moieties on the probe were hydrolyzed to yield 2′,7′-dichlorodihydrofluorescin, the redox-active species.

[4] = tested on: central benzodiazepine receptor; assay: Binding to the central benzodiazepine receptor
[5] = tested on: Ramos cells; assay: Antiproliferation, 72 h, media with 10% FBS; assay type: cell-based, human; details: read-out: ED50 (μM) for antiproliferation
Protocol: (§1) Like most 1,4-benzodiazepines, Bz-423 binds strongly to bovine serum albumin (BSA), which reduces the effective concentration of drug free in solution. For example, in tissue culture media containing 10% (v/v) fetal bovine serum (FBS), ca. 99% of the drug is bound to BSA. Therefore, cell culture cytotoxicity assays are conducted in media with 2% FBS to reduce binding to BSA and increase the free [Bz-423]. Under these conditions, the dose response-curve is quite sharp such that there is a limited concentration range at which Bz-423 is only partly effective. Since some benzodiazepines are known to have anti-proliferative properties, the effect of Bz-423 at concentrations <ED50 were carefully analyzed and observed that in addition to inducing apoptosis, Bz-423 prevented cell growth after 3 d in culture. In these low serum conditions, the cytotoxic and anti-proliferative effects overlapped making it difficult to study each effect independently. […] While higher amounts of drug may also block proliferation, it caused apoptosis well before the effects on proliferation could be observed.
(§2) To confirm the decrease in cell number relative to control cells after 3 d of treatment is due to decreased proliferation and not cell death balanced by proliferation, in addition to cell counting, cell divisions were studied. PKH-67 is a fluorescent probe that binds irreversibly to cell membranes and upon cell division is partitioned equally between the daughter cells, making it possible to quantify cell division by flow cytometry. Ramos cells stained with PKH67 and treated with Bz-423 had fewer cell divisions at sub-cytotoxic concentrations which confirmed that the decrease in cell number was due to anti-proliferative affects and not cell death. To determine if Bz-423 induced anti-proliferation was specific to Ramos cells, cell counting and cell cycle experiments were done in other B cell lines and cell lines derived from solid tumors.

[6] = tested on: Ramos clones transfected to overexpress Bcl-2; assay: Antiproliferation, 72 h, media with 10% FBS; assay type: cell-based, human; details: Bcl-2 overexpressing Ramos, read-out: ED50 (μM) for antiproliferation
Protocol: as §1, §2

[7] = tested on: Ramos clones transfected to overexpress Bcl-xL; assay: Antiproliferation, 72 h, media with 10% FBS; assay type: cell-based, human; details: Bcl-XL overexpressing Ramos, read-out: ED50 (μM) for antiproliferation
Protocol: as §1, §2

T1 sequence (P48047 24-213): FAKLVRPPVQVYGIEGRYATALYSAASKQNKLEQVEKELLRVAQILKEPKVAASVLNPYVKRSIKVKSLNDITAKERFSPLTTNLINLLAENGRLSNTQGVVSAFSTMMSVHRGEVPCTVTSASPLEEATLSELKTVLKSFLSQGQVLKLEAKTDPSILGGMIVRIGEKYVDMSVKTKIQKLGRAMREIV

## CN1C(=O)C(Cc2ccc3ccccc3c2)N=C(c2ccc(O)cc2)c2cc(Cl)ccc21 (centres unmarked) [Bz-423]
[1]
  Redox cycling (substrate oxidation): does not lead to substrate oxidation
[2]
  Kd: 0.2 ± 0.04 µM
[3]; state 3 respiration, aerobic, after induction phase, slopes compared to control
  Increase in rate of ROS production versus control: nearly two-fold
[3]; state 4 respiration
  ROS production in state 4 mitochondria: does not stimulate ROS
[4]
  Binding to the central benzodiazepine receptor: prevents binding
[5]
  EC50: 10.7 µM
[6]
  EC50: 11.9 µM
[7]
  EC50: 13.7 µM
